How the values were obtained:
Format in all cases: cell-based, human
[1] = test system: sporadic PD patient fibroblasts; experiment: Mitochondrial membrane potential (MMP, TMRM) in sporadic PD patient fibroblasts; settings: Homo sapiens, Fibroblast, 24 h, 3 sporadic PD patient fibroblasts
Protocol: (§1) Primary fibroblast cells were cultured continuously in Glucose based medium (high glucose (4500 mg/L) Dulbecco's Modified Eagle's medium (DMEM; Sigma-Aldrich) supplemented with 10% fetal bovine serum (Sigma-Aldrich), 100 IU/mL penicillin, 100 μg/mL streptomycin (Lonza), 1 mM sodium pyruvate (Sigma-Aldrich) and 50 μg/mL uridine (Sigma-Aldrich)). Unless otherwise stated, 24 hours prior to analysis, the Glucose based medium was exchanged for Galactose based medium (glucose-free DMEM (Gibco) with the same supplementation and in addition, 5 mM galactose (Sigma-Aldrich)). All cells were assessed between passage 6-10.
Fibroblasts were cultured and plated into a greiner black 384 μClear® plate at a concentration of 1000 cells per well in 50 μl of media volume. The plates are left overnight in an incubator to allow the fibroblasts to adhere to the plate surface. The following morning the Glucose based medium is replaced with 25 μl of Galactose based medium. The plates were then dosed with the compounds using an ECHO® 550 liquid handling system. The wells were dosed to provide an 8-point concentration range of 0.06 nM-300 nM of compound. After dosing the wells are topped up with a further 25 μl of Galactose based medium and then left in an incubator for 24 hours. After 24 hours, the medium is removed from the wells and replaced with 25 μl phenol free Minimal essential medium supplemented with 10% FBS, 1% Penicillin-streptomycin, 1% sodium pyruvate, 0.1% uridine, 1% non-essential amino acids and 1% MEM vitamins with 80 nM TMRM (Sigma) and 10 μM Hoechst Stain (Sigma). The plate is returned to the incubator for another hour after which the stain medium is removed and replaced with 25 μl Phenol free MEM. The plate is then imaged using an IN Cell high content microscope (GE Healthcare) with fields of view per well in 2 channels, Cy3 excitation 542 nm, emission 604-64 nm; and the DAPI excitation 350 nm, emission 450-55 nm at 37° C. with CO2. After imaging the plate is disposed of and the images are Data mined using the INCell developer Toolkit (GE Healthcare).
After the assays had been repeated in triplicate per line and compound the data was then inputted into Graph pad Prism 7 software suite where a dose response curve is generated using the default “[Agonist] vs response(three parameters)” equation. […]

[2] = test system: iNeurons from sPD patients; experiment: Mitochondrial membrane potential (MMP) in iNeurons from sPD patients; settings: for EC50: Homo sapiens, sPD patient iNeurons, dosing every 3 days for last 12 days of differentiation; for MMP normalisation (% of controls): sPD patient iNeurons treated, untreated sPD patients 52
Protocol: (§2) The fibroblasts lines and iNPC lines have previously been characterised and published in Carling et al, 2020.
(§3) Briefly, iNPCs are plated in a 6-well plate and cultured for 2 days in DMEM/F-12 medium with Glutamax™ supplemented with 1% NEAA, 2% B27 (Gibco) and 2.5 μM of DAPT. On day 3, DAPT is removed and the medium is supplemented with 1 μM smoothened agonist (SAG) and FGF8 (75 ng/ml) for additional 10 days. Neurons are replated at this stage. Subsequently SAG and FGF8 are withdrawn and replaced with BDNF (30 ng/ml), GDNF (30 ng/ml), TGF-b3 ([…]) and dcAMP (2 mM, Sigma) for 15 days, as previously described Schwartzentruber et al, 2020 and Carling et al, 2020. Dopaminergic neurons were treated with compounds at concentrations of 0.1 nM, 1 nM, 3 nM, 10 nM, 30 nM and 100 nM dosing every 3 days for the last 12 days of differentiation.
(§4) iNeurons were treated every 3 days for the last 12 days of the differentiation protocol. Cells are plated in 96 well plates; for live imaging cells are incubated for one hour at 37° C. with 80 nM tetramethlyrhodamine (TMRM), 1 μM LysoTracker® Green (Invitrogen) and Hoechst Stain solution (Sigma) at 1 μM before imaging using Opera Phenix™. Cellular ATP measurements are undertaken using ATPlite kit (Perkin Elmer) as per manufacturer's instructions. Mitochondrial reactive oxygen species generation was assessed using mitochondrial NpFR2 (probe; a kind gift from Dr Liz New, University of Sydney, Australia) at 20 μM and Hoechst stain solution at 1 μM for 30 mins at 37° C., then the dyes are removed and cells images using Opera Phenix™. Images generated from the live imaging experiments were analysed using Harmony® (Perkin Elmer software). We developed protocols in order to segment nucleus, cell boundary and processes, mitochondria, lysosomes, autophagosomes. We only analysed the z projection images collected from the z stacks.

[3] = test system: iNeurons from sPD patients; experiment: Cellular ATP in iNeurons (dopaminergic neurons derived from sPD patients); settings: for EC50: Homo sapiens, Neuron, sPD patient iNeurons, dosing every 3 days for last 12 days of differentiation; for ATP normalisation (% of controls): sPD patient iNeurons treated, untreated sPD patients 50
Protocol: as §2, §3, §4

[4] = test system: iNeurons from sPD patients; experiment: Mitochondrial reactive oxygen species (ROS) in iNeurons from sPD patients; settings: sPD patient iNeurons treated; untreated sPD patients 115
Protocol: as §2, §3, §4

[5] = test system: sporadic PD patient fibroblasts; experiment: Cellular ATP levels in sporadic PD patient fibroblasts, full ATP assay; settings: Homo sapiens, Fibroblast, 24 h, 3 sporadic PD patient fibroblasts
Protocol: as §1
The ATP protocol is generally as described in Mortiboys et al 2008. Briefly, fibroblasts were cultured as and plated into white 384 well plates at a concentration of 5000 cells per well in 50 μl of media volume. The plates are left overnight in an incubator to allow the fibroblasts to adhere to the plate surface. The following morning the Glucose based medium is replaced with 25 μl of Galactose based medium. The plates were then spiked with the compounds using a ECHO 550 liquid handling system. The wells were dosed to provide an 8-point concentration range of 0.06 nM-300 nM of compound. After dosing the wells are topped up with a further 25 μl of Galactose based medium and then left in an incubator for 24 hours. Following this incubation, the medium is removed from the plate and the wells are washed twice with sterile PBS. The wells are filled with 25 μl of Sterile PBS followed by 12.5 μl of Lysis solution from the ATPlite™ Luminescence ATP detection assay system (Perkin Elmer), including 16 cell free wells to use as blank controls. The plate is then placed on a rotary shaker for 5 mins at 700 rpm. Following the shaking 12.5 μl of ATP substrate solution (Perkin Elmer) is added to each well and a further 5 min of shaking. The plate is then placed in darkness for 10 minutes prior to reading. Using a PHERAStar® plate reader, luminescence intensity is recorded. Following the ATP assay the plates are immediately assayed for DNA content in a CyQUANT® assay.
(§5) Immediately following The ATP assay DNA content is assessed with the CyQUANT® NF Cell Proliferation Assay Kit (ThermoFisher). CyQUANT® buffer is prepared immediately before the assay and is comprised of 1 μl CyQUANT® dye per ml×1 HBSS solution. 12.5 μl of CyQUANT® buffer is added to each well. Plate left in incubator for 1 hour then read on a PHERAStar© Plate reader with excitation at 497 nm and emission at 520 nm.
ATP Quantification for each well is determined using the following formula: […]
After the assays had been repeated in triplicate per line and compound the data was then inputted into Graph pad Prism 7 software suite where a dose response curve is generated using the default “[Agonist] vs response(three parameters)” equation.
From this EC50 values, lowest response and maximal response were taken and used to calculate the Geometric mean between the 5 different lines assessed.

[6] = test system: sporadic PD patient fibroblasts; experiment: Cellular ATP levels in sporadic PD patient fibroblasts, Preliminary ATP assay; settings: Homo sapiens, Fibroblast, 24 h, % of vehicle treated sPD fibroblasts, 3 sporadic PD patients
Protocol: In some cases, a preliminary ATP protocol was used in which EC50 was not determined. The preliminary ATP protocol is generally as described in Mortiboys et al 2008. Briefly, fibroblasts were cultured and plated into white, clear-bottom 384 well plates at a concentration of 4000 cells per well in 50 μl of media volume. The plates are left overnight in an incubator to allow the fibroblasts to adhere to the plate surface. The following morning the Glucose based medium is replaced with 25 μl of Galactose based medium. The cells were then dosed with 100 nM and 1 μM concentrations of the compounds using a ECHO 550 liquid handling system. After dosing the wells are topped up with a further 25 μl of Galactose based medium and then left in an incubator for 24 hours. Following this incubation, the medium is removed from the plate and the wells are washed twice with sterile PBS. The wells are filled with 20 μl of Sterile PBS followed by 10 μl of Lysis solution from the ATPlite™ Luminescence ATP detection assay system (Perkin Elmer), including 14 cell free wells to use as blank controls. The plate is then placed on a rotary shaker for 10 mins at 700 rpm. Following the shaking 10 μl of ATP substrate solution (Perkin Elmer) is added to each well and a further 5 min of shaking. The plate is then incubated in the dark for 10 minutes prior to reading. Using a FLUOstar® Omega plate reader, luminescence intensity is recorded. Following the ATP assay the plates are immediately assayed for DNA content in a CyQUANT® assay.
as §5, with “of 2” for “of 1”, “solution. 10” for “solution. 12.5”, “well. Cell plates were then incubated” for “well. Plate left in incubator”, “hour before being” for “hour then”, “a FLUOStar®” for “a PHERAStar©”
The ATP Quantification for each well is determined as set out above.

[7] = test system: iNeurons from sPD patients; experiment: Neuronal morphology (elongation) in iNeurons from sPD patients; settings: sPD patient iNeurons treated; untreated sPD patients 48
Protocol: as §2, §3
(§6) Cells are plated into 96 well plates and fixed using 4% paraformaldehyde for 30 minutes. After PBS washes cells are permeabilised using 0.1% Triton™ X-100 for 10 minutes and blocked using 5% goat serum for 1 hour. Cells are incubated with primary antibodies βIII tubulin (Millipore); activated caspase 3 (Cell Signaling); at 4° C. for 16 hours. Cells are washed using PBS-Tween® and incubated with Alexa Fluor™-conjugated secondary antibodies 488 and 568 (Invitrogen) and Hoescht (Sigma) 1 μM prior to imaging. Imaging was performed using the Opera Phenix™ high content imaging system (Perkin Elmer).
iNeurons were treated every 3 days for the last 12 days of the differentiation protocol. […] Mitochondrial reactive oxygen species generation was assessed using mitochondrial NpFR2 (probe; a kind gift from Dr Liz New, University of Sydney, Australia) at 20 μM and Hoechst stain solution at 1 μM for 30 mins at 37° C., then the dyes are removed and cells images using Opera Phenix™. Images generated from the live imaging experiments were analysed using Harmony® (Perkin Elmer software). […] We only analysed the z projection images collected from the z stacks.

[8] = test system: iNeurons from sPD patients; experiment: Activated caspase 3 levels (apoptosis) in iNeurons from sPD patients; settings: sPD patient iNeurons treated; untreated sPD patients 162
Protocol: as §2, §3, §6

Row | EC50 [2] | EC50 [3] | Structure (SMILES) | EC50 ([1]; 8-point range 0.06 nM-300 nM) | Emax ([1]; max response with highest dose of compound (300 nM), read-out: MMP % of vehicle, top %) | activity at 60 pM ([1]; max response with lowest dose of compound (0.06 nM), read-out: MMP % of vehicle, bottom %) | MMP normalisation (% of controls) [2] | ATP normalisation (% of controls) [3] | ROS normalisation (% of controls) [4] | EC50 ([5]; 8-point range 0.06 nM-300 nM) | Emax at 0.3 µM ([5]; max response with highest dose of compound (300 nM), read-out: ATP % of vehicle, top %) | activity at 60 pM ([5]; max response with lowest dose of compound (0.06 nM), read-out: ATP % of vehicle, bottom %) | activity at 0.1 µM ([6]; 100 nM, read-out: Average ATP Response 100 nM) | activity at 1 µM ([6]; 1 μM, read-out: Average ATP Response 1 μM) | Neuronal morphology (elongation; % controls) [7] | Activated caspase 3 levels [8]
1 | 10.3 nM | 6.5 nM | C[C@H](CCC(=O)O)[C@H]1CC[C@H]2[C@@H]3[C@@H](O)C[C@@H]4CNCC[C@]4(C)[C@H]3CC[C@]12C.Cl [Compound 28a, 3-Aza-7β-hydroxy-5β-cholan-24-oic acid hydrochloride salt] | 4.58 nM | 120% | 96.8% | 71 % of controls | 89.6 % of controls | 111 % of controls | 10.9 nM | 137% | 98.3% | – | – | – | –
2 | 7.3 nM | 5 nM | C[C@H](CCC(=O)O)[C@H]1CC[C@H]2[C@@H]3[C@@H](O)C[C@@H]4C[C@H](O)CC[C@]4(C)[C@H]3CC[C@]12C [UDCA, ursodeoxycholic acid, reference compound] | – | – | – | 73 % of controls | 82 % of controls | 110 % of controls | – | – | – | 105% | 98.9% | 64 % controls | 143 % of level in iNeurons from Controls

— US20250320246A1, “3-AZASTEROID COMPOUNDS FOR THE TREATMENT OF DISEASES RELATED TO MITROCHONDRIAL FUNCTION” (NZP UK LIMITED, priority 2022, published 2025)
